From ChEMBL document CHEMBL1153404, “Design and structural analysis of novel pharmacophores for potent and selective peroxisome proliferator-activated receptor gamma agonists” (J Med Chem, 2009)
pEC50: −log10 of the molar value.

Tests used:
[1] = molecular target: T1, Peroxisome proliferator-activated receptor gamma (Homo sapiens, UniProt P37231)
T1 sequence (P37231 whole entry): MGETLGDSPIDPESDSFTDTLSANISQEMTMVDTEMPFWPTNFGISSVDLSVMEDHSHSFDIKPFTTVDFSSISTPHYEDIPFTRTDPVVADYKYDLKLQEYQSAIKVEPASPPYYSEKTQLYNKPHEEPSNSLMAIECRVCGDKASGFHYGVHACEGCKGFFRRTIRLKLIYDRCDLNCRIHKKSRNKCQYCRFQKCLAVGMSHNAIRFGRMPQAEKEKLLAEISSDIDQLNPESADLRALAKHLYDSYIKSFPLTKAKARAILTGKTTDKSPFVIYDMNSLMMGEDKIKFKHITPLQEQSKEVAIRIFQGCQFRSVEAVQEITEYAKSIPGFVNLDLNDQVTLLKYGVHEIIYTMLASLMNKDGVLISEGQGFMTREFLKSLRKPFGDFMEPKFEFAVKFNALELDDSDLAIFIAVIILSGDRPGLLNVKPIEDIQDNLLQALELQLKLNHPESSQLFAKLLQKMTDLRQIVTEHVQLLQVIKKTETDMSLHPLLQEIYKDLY
Description: Agonist activity at human PPARgamma receptor by cell based transactivation assay

[2] = molecular target: T2, Peroxisome proliferator-activated receptor delta (Homo sapiens, UniProt Q03181); experiment: Agonist activity at human PPARdelta receptor by cell based transactivation assay
T2 sequence (Q03181 whole entry): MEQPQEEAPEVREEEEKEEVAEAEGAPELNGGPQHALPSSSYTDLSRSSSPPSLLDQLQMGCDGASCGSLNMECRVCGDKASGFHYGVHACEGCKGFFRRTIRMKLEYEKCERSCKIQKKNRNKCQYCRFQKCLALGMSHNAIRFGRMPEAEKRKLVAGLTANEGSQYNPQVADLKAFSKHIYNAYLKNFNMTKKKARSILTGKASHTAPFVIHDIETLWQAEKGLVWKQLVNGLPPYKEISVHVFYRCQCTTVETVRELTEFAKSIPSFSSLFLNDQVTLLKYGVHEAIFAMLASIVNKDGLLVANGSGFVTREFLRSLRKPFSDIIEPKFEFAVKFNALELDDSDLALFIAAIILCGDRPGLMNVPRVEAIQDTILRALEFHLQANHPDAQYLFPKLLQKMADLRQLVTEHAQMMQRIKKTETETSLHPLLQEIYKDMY

[3] = species: Homo sapiens; experiment: Selectivity of EC50 for human PPARgamma receptor over EC50 for human PPARalpha receptor
[4] = molecular target: T3, Peroxisome proliferator-activated receptor alpha (Homo sapiens, UniProt Q07869); experiment: Agonist activity at human PPARalpha receptor by cell based transactivation assay; type: functional
T3 sequence (Q07869 whole entry): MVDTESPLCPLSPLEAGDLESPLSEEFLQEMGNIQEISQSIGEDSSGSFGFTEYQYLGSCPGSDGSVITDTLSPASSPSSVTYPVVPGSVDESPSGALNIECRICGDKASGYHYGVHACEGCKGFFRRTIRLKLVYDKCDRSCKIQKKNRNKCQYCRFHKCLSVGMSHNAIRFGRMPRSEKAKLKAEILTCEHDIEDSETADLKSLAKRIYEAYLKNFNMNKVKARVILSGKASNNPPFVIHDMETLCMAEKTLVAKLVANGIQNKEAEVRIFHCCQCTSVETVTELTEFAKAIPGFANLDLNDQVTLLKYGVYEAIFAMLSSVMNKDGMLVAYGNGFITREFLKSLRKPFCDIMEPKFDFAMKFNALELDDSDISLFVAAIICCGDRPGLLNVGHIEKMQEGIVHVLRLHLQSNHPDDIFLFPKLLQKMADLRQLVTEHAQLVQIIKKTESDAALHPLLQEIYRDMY

[5] = species: Homo sapiens; experiment: Selectivity of EC50 for human PPARalpha receptor over EC50 for human PPARgamma receptor
[6] = species: Homo sapiens; experiment: Selectivity of EC50 for human PPARalpha receptor over EC50 for human PPARdelta receptor

SMILES | pEC50 [1] | pEC50 [2] | pEC50 [4] | fold change (FC) [5] | fold change (FC) [6] | Activity [3] | fold change (FC) [3]
CCCc1cc(C(=O)c2ccc(-c3ccccc3)cc2)ccc1OCCCn1ccc2cc(OC(C)(C)C(=O)O)ccc21 | 6.92 | < 5.00 | 5.72 | – | – | – | 15
CCCc1cc(C(=O)c2ccc(-c3ccccc3)cc2)ccc1OCCCN1CCCc2c(OC(C)(C)C(=O)O)cccc21 | 7.30 | < 5.00 | 5.40 | – | – | – | –
CCCc1cc(C(=O)c2ccc3ccccc3c2)ccc1OCCCn1ccc2c(OC(C)(C)C(=O)O)cccc21 | 5.55 | < 5.00 | 7.52 | > 100 | > 100 | – | –
CCCc1cc(C(=O)c2ccc(OC)cc2)ccc1OCCCn1ccc2cc(OC(C)(C)C(=O)O)ccc21 | 6.33 | 5.35 | 7.30 | – | – | – | –
CN(CCOc1ccc(CC2SC(=O)NC2=O)cc1)c1ccccn1 (stereo not given) | – | – | – | – | – | 80 | –
CCCc1cc(C(=O)c2ccccc2)ccc1OCCCn1ccc2c(OC(C)(C)C(=O)O)cccc21 | < 5.00 | < 5.00 | 7.52 | – | – | – | –
CCCc1cc(C(=O)c2ccc(-c3ccccc3)cc2)ccc1OCCCN1CCCc2cc(OC(C)(C)C(=O)O)ccc21 | 7.00 | < 5.00 | < 5.00 | – | – | – | –
CCCc1cc(C(=O)c2ccc3ccccc3c2)ccc1OCCCn1ccc2cc(OC(C)(C)C(=O)O)ccc21 | 6.43 | < 5.00 | 7.52 | – | – | – | –
CCCc1c(OCCCN2CCCc3cc(OC(C)(C)C(=O)O)ccc32)ccc2cc(C(=O)c3ccccc3)ccc12 | 6.27 | < 5.00 | 6.62 | – | – | – | –
CCCc1cc(C(=O)c2ccc(-c3ccccc3)cc2)ccc1OCCCn1ccc2c(OC(C)(C)C(=O)O)cccc21 | 6.52 | < 5.00 | 5.39 | > 300 | > 300 | – | 15
CCCc1c(OCCCN2CCCc3c(OC(C)(C)C(=O)O)cccc32)ccc2cc(C(=O)c3ccccc3)ccc12 | 7.00 | < 5.00 | 6.92 | – | – | – | –
CCCc1cc(C(=O)c2ccccc2)ccc1OCCCn1ccc2cc(OC(C)(C)C(=O)O)ccc21 | 6.38 | 5.28 | 7.40 | – | – | – | –
CCCc1c(OCCCn2ccc3cc(OC(C)(C)C(=O)O)ccc32)ccc2cc(C(=O)c3ccoc3)ccc12 | 6.37 | < 5.00 | 6.89 | – | – | – | –

Second part, led by results:

pEC50 [1] | pEC50 [2] | pEC50 [4] | fold change (FC) [5] | fold change (FC) [6] | Activity [3] | SMILES | fold change (FC) [3]
5.97 | < 5.00 | < 5.00 | – | – | – | CCCc1c(OCCCn2ccc3cc(OC(C)(C)C(=O)O)ccc32)ccc2cc(C(C)=O)ccc12 | –
5.68 | < 5.00 | < 5.00 | – | – | – | CCCc1c(OCCCn2ccc3cc(OC(C)(C)C(=O)O)ccc32)ccc2cc(C(=O)c3ccncc3)ccc12 | –
– | < 5.00 | – | – | – | – | CCCc1c(OCCCn2ccc3cc(OC(C)(C)C(=O)O)ccc32)ccc2cc(C(=O)c3ccccc3)ccc12 | –
5.67 | < 5.00 | < 5.00 | – | – | – | CCCc1c(OCCCn2ccc3cc(OC(C)(C)C(=O)O)ccc32)ccc2cc(C(=O)c3ccc(F)cc3)ccc12 | –
< 5.00 | < 5.00 | < 5.00 | – | – | – | CCCc1c(OCCCn2ccc3cc(OC(C)(C)C(=O)O)ccc32)ccc2cc(Cc3ccccc3)ccc12 | –
6.05 | < 5.00 | 6.89 | – | – | – | CCCc1cc(C(=O)c2ccc(F)cc2)ccc1OCCCn1ccc2cc(OC(C)(C)C(=O)O)ccc21 | –
6.29 | < 5.00 | 6.89 | – | – | – | CCCc1c(OCCCn2ccc3cc(OC(C)(C)C(=O)O)ccc32)ccc2cc(C(=O)c3ccc(OC)cc3)ccc12 | –
5.46 | < 5.00 | 6.70 | – | – | – | CCCc1c(OCCCn2ccc3cc(OC(C)(C)C(=O)O)ccc32)ccc2c(C(=O)c3ccccc3)cccc12 | –
